System: Sprague-Dawley rats
Assay: Rat lick study (Davis Rig) on saccharin, citric acid and quinine
Format: in vivo
Conditions: water 192 licks
Description: Bitter blocker prepared as described above in Example 2, at 5, 25, 50 and 100 mg/L alone (called CLEARTASTE® herein) and added to each solution below:
Sucrose 250 mM; Saccharin 10 mM; MSG 150 mM; NaCl 400 and 800 mM; Citric Acid 10 mM; Quinine 0.08 and 0.16 mM.
16 naïve, adult (>50 days old, approximately 200 gram body weight), male Sprague-Dawley rats were tested in the MS-160 “Davis Rig,” manufactured by DiLog Instruments, Inc. We measured licking behavior at a resolution of 1 ms during the controlled presentation of up to 16 taste stimuli. The Davis Rig is housed inside an acoustic isolation chamber utilizing a white noise generator. Intake and exhaust fans located on opposing walls of the chamber direct constant air flow along the longitudinal axis of the stimulus delivery tray in order to reduce olfactory cues for any given stimulus. Therefore all licking behavior during brief (30 s duration) trials was motivated by orosensory/taste sensations. Rats were trained to lick during trials presenting water as the stimulus in the Davis Rig for three consecutive days prior to the start of testing. Each daily test session contained two blocks of 15 trials producing two replications of each test stimulus within each daily session. We tested the rats for a total of eight days.

## C=C[C@H]1C[N@@]2CC[C@H]1C[C@H]2[C@H](O)c1ccnc2ccc(OC)cc12 [quinine]
0.08 mM quinine alone
  licks: 170 licks
0.16 mM quinine alone
  licks: 70 licks
